One data set concerns Mus musculus. The experiment in a line: Inhibition of morphine-induced antinociception in ICR mouse assessed as antagonism of morphine response to heat-induced tail flick at 10 mg/kg, sc preincubated for 15 mins before the addition of morphine assessed after 30 mins. Type of data set: functional. As to conditions: route subcutaneous.
Data set [1] in a line: Binding affinity to dog delta opioid receptor. More on the design: species or system Canis lupus familiaris.
For another data set, the target named is T1, Cytochrome P450 2D15 (Canis lupus familiaris, UniProt Q29473).
T1 sequence (Q29473 whole entry): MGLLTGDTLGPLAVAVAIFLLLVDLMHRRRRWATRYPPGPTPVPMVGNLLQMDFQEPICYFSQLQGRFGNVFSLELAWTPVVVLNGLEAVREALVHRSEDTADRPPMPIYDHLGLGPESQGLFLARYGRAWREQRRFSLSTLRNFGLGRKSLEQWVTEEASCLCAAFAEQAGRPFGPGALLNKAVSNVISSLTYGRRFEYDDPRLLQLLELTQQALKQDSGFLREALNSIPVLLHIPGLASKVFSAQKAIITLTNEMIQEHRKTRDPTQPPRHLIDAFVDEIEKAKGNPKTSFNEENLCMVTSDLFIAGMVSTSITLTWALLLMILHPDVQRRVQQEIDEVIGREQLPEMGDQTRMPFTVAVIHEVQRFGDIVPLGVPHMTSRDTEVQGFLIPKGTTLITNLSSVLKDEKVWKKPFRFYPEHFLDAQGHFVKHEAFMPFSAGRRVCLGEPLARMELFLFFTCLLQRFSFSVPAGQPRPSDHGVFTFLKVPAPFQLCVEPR
The experiment in a line: Inhibition of dog CYP2D15. The format is ADME.

The next data set has as its system Canis familiaris. In words: Antipruritic activity in dog with flea allergy dermatitis at 2 mg/kg, po upto 12 hrs. More on the design: dose 2 mg/kg. As to conditions: Canis lupus familiaris. Type of data set: functional, organism-based.
The nature of data set [2]: Binding affinity to dog mu opioid receptor. More on the design: species or system Canis lupus familiaris.
The target of data set [3] is Mu-type opioid receptor (Cavia porcellus, UniProt P97266). The experiment in a line: Antagonist activity at mu opioid receptor in guinea pig longitudinal muscle myenteric plexus assessed as inhibition of DAMGO-induced contraction after 10 mins. Type of data set: functional. The conditions noted are these: read-out: pA2 (converted).
Data set [4] is described as follows: Binding affinity to dog kappa opioid receptor. More on the design: species or system Canis lupus familiaris.
For another data set, the system named is CHO. The experiment in a line: Genotoxicity in CHO cells by micronucleus assay. Type of data set: toxicity, cell-based, Cricetulus griseus. The conditions noted are these: chinese hamster.
In data set [5] the target is Mu-type opioid receptor (Homo sapiens, UniProt P35372). The experiment in a line: Displacement of [3H]DAMGO from human mu opioid receptor. (Loss of bound radioactivity is the signal in a displacement assay; it reports binding, not function.)

Consider two molecules from ChEMBL document CHEMBL1806441, “Discovery and synthesis of a new class of opioid ligand having a 3-azabicyclo[3.1.0]hexane core. An example of a 'magic methyl' giving a 35-fold improvement in binding” (Bioorg Med Chem Lett, 2011).

The structures appear in SMILES notation. Active and inactive are the calls of the source. The rule behind the calls is not given here.

A word on the inhibition in vivo: it is the share of the control response that was lost under treatment. The Ki is a dissociation constant, usually derived from enzyme kinetics or from competition with a known ligand. High values mean a looser hold on the target, low ones a stronger hold on the target.

Chain of Mu-type opioid receptor (Homo sapiens, UniProt P35372) (P35372 whole entry): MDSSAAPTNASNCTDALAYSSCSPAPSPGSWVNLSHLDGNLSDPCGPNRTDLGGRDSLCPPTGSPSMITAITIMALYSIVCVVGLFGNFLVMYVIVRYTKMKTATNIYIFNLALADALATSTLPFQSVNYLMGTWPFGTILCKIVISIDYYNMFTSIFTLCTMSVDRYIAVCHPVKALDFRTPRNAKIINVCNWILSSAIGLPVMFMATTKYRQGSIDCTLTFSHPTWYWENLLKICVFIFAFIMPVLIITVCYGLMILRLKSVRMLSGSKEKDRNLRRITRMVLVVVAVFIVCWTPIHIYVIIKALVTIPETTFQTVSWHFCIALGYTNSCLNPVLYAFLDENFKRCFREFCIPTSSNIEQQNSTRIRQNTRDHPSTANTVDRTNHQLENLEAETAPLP
Chain of Mu-type opioid receptor (Cavia porcellus, UniProt P97266) (P97266 whole entry): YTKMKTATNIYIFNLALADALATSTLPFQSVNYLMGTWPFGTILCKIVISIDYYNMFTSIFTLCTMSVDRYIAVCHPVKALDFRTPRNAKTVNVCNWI

Regarding `C[C@]1(c2cccc(NS(C)(=O)=O)c2)[C@@H]2CN(CCCc3ccccc3)C[C@@H]21`, in the data set on Mus musculus, the inhibition in vivo at 10 mg/kg worked out at 89%. In addition, the Ki in data set [1] was determined as 0.183 µM; in [2], 0.0041 µM; in [4], 0.094 µM; at Mu-type opioid receptor [5], 0.00479 µM. In addition, the “inhibition (INH)” value on Cytochrome P450 2D15 is listed as “Active”. Moreover, the result in the data set on Canis familiaris was Active. Moreover, on Mu-type opioid receptor [3], the Kb is 0.0107 µM. In addition, the Activity entry in the data set on CHO is on record as “Non-toxic”.
Consider `CS(=O)(=O)Nc1cccc([C@H]2[C@@H]3CN(CCCc4ccccc4)C[C@@H]32)c1`, for which the Ki in data set [1] is over 10 µM; in data set [2] it was 0.379 µM; in data set [4] it was 1.58 µM; at Mu-type opioid receptor [5], 0.168 µM.
